In US9555024B2, “Substituted (E)-N′-(1-phenylethylidene)benzohydrazide analogs as histone demethylase inhibitors” (University of Utah Research Foundation, priority 2011, dated 2017):

Tests used:
MAO B = MAO B (Homo sapiens (Human), UniProt P27338); experiment: Monoamine Oxidase assay (MAO-Glo Assay Kit); conditions: result in words
heme oxygenase (HMOX) = experiment: Real-Time PCR of heme oxygenase (HMOX) expression in T-47D cells; assay type: cell-based, human; conditions: normalized to HPRT and β-actin
Method: Briefly, T-47D cells were seeded in 96-well plates and treated with concentrations of inhibitors as indicated. Cell lysates, Reverse transcription, and single color syber green realtime PCR was performed using the Cells-to-Ct kit (Life Technologies). Transcript levels of heme oxygenase (HMOX) were normalized to hypoxanthine phosphoribosyltransferase (HPRT) and β-actin.

T-47D cells = experiment: Cell Viability Assay (ATPlite); assay type: cell-based; conditions: Homo sapiens, T47D, 96-hours of incubation, read-out: Cell Growth, IC50
Method: Cells were cultured according to the procedures provided. […] Cells were cultured at 37° C. and 5% CO2.
Cell viability was determined using ATPlite™ Luminescence Assay System (PerkinElmer Inc., Waltham, Mass.) using the various cell-lines described above and in Table 4. Briefly, cells were seeded in 96-well plates and then treated with different concentrations of inhibitor (0.1% final DMSO concentration). After 96-hours of incubation, ATPlite detection reagent was added directly to the culture well. Luminescence was read 5 minutes later on an Envision microplate reader.
(§1) IC50 values are determined using GraphPad Prism 5 software. The data were entered as an X-Y plot into the software as percent inhibition for each concentration of the drug. The concentration values of the drug were log transformed and the nonlinear regression was carried out using the “sigmoidal dose-response (variable slope)” option within the GraphPad software to model the data and calculate IC50 values.

MAO A = MAO A (Homo sapiens (Human), UniProt P21397); experiment: Monoamine Oxidase assay (MAO-Glo Assay Kit); conditions: result in words
Chain of MAO A (P21397 whole entry): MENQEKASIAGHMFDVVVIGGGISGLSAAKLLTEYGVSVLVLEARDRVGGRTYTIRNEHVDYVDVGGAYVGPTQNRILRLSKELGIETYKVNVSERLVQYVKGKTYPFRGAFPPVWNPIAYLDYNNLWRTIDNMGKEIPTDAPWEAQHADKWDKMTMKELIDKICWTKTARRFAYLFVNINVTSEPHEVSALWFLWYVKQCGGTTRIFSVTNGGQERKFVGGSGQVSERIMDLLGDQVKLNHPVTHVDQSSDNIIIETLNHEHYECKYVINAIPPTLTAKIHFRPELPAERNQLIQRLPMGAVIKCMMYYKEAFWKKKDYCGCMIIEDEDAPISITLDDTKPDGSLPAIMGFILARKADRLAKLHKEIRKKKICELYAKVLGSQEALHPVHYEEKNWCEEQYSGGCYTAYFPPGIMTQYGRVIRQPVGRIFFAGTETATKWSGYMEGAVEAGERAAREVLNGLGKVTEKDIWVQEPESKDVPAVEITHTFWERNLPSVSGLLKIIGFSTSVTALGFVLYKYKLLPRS
Method: Recombinant (expressed in baculovirus infected BTI insect cells) monoamine oxidase A and monoamine oxidase B (Catalog No. M7316 and M7441, respectively) were purchased from Sigma-Aldrich Co. LLC. […] MAO-Glo™ Assay Kit was purchased from Promega Corporation (Madison, Wis.).
Briefly, 6.25 μL of test compound was added to each well of a 384-well plate. Enzyme (either MAO A or B) was added (12.5 μL in 2× buffer containing 1 μg protein) and allowed to incubate for 5 minutes. Finally, 6.25 μL of 4×MAO substrate was added to each well. Following a one hour incubation, 25 μL of Luciferin detection reagent was added to each well, and incubated for 20 minutes. Luminescence was then measured on an Envision microplate reader.
as §1

Chain of MAO B (P27338 whole entry): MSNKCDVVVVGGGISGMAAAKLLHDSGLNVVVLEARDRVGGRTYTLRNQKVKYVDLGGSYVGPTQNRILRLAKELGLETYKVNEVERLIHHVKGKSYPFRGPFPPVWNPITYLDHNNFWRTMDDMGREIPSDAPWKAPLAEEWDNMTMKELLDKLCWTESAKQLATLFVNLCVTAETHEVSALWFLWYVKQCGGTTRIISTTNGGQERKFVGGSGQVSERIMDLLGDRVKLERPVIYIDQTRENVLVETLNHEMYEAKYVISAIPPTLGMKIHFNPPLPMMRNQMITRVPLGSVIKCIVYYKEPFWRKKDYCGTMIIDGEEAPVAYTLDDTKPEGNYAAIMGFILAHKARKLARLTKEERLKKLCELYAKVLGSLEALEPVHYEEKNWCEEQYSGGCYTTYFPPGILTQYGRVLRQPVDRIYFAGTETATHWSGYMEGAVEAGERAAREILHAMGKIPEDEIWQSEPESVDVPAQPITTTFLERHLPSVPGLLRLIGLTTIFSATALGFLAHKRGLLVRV

| SMILES | activity against MAO B (MAO B) | HMOX expression (fold-induction) (heme oxygenase (HMOX)) | IC50 (T-47D cells) [µM] | activity against MAO A (MAO A) |
| --- | --- | --- | --- | --- |
| O=C(N/N=C/c1ccccc1O)c1ccc(O)cc1 [Compound 1] | comparable activity to tranylcypromine | – | – | – |
| C/C(=N\NC(=O)c1ccccc1)c1c(O)cccc1O [Compound 14] | – | 1.1 | > 10 | – |
| N[C@@H]1CC1c1ccccc1 (some centres unmarked) [tranylcypromine, reference compound] | exhibited activity | – | – | exhibited activity |
